Tests used:
A2BR = molecular target: T1, A2BR (Homo sapiens, UniProt P29275); assay: Potency on A2BR (no method described); details: summary statement
T1 sequence (P29275 1-332): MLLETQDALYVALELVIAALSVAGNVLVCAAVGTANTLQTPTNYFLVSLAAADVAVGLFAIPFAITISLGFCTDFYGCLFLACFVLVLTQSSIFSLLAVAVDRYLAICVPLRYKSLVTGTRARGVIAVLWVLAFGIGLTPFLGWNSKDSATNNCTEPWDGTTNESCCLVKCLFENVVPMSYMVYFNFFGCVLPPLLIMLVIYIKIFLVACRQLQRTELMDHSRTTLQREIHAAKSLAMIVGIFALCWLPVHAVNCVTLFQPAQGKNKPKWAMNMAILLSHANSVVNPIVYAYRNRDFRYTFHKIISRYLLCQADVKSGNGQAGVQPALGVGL

[1] = molecular target: T2, adenosine A2A receptor (A2AR) (Homo sapiens, UniProt P29274); assay: A2AR/TREx CHO cAMP functional assay (antagonist mode, NECA EC80); assay type: cell-based
T2 construct: expressed in transfected cells
Procedure: Functional assays may also be employed to assess the compounds of the present invention. The cAMP assay described in detail below was used to evaluate certain compounds described herein.
Measurement of the Adenosine Receptor Activity of Compound I Using a A2AR/TREx CHO cAMP Functional Assay
Dose response of NECA (5-N-ethylcarboxamidoadenosine), a non-selective adenosine receptor agonist, was performed daily to determine the EC80 of NECA used in the cAMP functional assay. 1000-2500 cells/well of stably expressed A2AR TRex CHO cells were seeded to the 384-well Opti plate (Perkin Elmer) followed by incubating NECA at varies concentrations (ranging from 10 μM to 0 μM) at 37° C. for 30 min. […] FRET signal was detected with Envision multilabel plate reader (Perkin Elmer) when Eu-cAMP tracer excitation at 615 nm and emission at 665 nm. […]
The cAMP antagonist functional assay (Perkin Elmer) was performed on A2AR TRex CHO stable cell lines. […] FRET signal was detected when Eu-cAMP tracer excitation at 615 nm and emission at 665 nm. […]
Particular compounds were evaluated for adenosine A2A receptor activity as described for the cAMP assay above. […]

T2 sequence (P29274 whole entry): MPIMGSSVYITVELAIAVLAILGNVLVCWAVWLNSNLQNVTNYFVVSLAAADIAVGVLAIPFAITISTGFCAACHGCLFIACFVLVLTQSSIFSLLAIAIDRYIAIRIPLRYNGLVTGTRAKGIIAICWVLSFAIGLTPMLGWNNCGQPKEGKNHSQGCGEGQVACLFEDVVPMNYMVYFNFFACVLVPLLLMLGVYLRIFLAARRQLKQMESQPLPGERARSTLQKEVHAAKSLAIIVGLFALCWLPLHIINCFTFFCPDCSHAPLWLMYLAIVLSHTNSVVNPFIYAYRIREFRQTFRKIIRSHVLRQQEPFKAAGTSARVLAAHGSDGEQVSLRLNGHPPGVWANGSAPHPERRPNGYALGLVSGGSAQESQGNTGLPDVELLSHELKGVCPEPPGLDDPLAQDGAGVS

Cc1c(C#N)cccc1-c1cc(-c2cn(Cc3cccc(C(C)(C)O)n3)nn2)nc(N)n1 [Compound I, 3-[2-amino-6-(1-{[6-(2-hydroxypropan-2-yl)pyridin-2-yl]methyl}-1H-1,2,3-triazol-4-yl)pyrimidin-4-yl]-2-methylbenzonitrile] was tested, and the “potency on A2BR (antagonist)” value (A2BR) was “less than 10 nM”, the Kb [1] was less than 10 nM and the “potency on A2AR (antagonist)” value ([1]; summary statement) was “less than 10 nM”.

Source: patent US12195447B2, “Azolopyrimidine for the treatment of cancer-related disorders” (ARCUS BIOSCIENCES, INC., priority 2017, dated 2025)
